Measurements from patent US20070117152A1, “Biosensor” (FUJIFILM Corporation, priority 2005, published 2007).

Legend:
Carbonic anhydrase = Carbonic anhydrase (Bos taurus, UniProt P00921); assay: Evaluation of binding ability of hydrochlorothiazide on CA-immobilized chip by surface plasmon resonance (Example 1); conditions: 50 μM in 1×PBS pH 7.4
Method: (§1) The solution in the measurement chip was removed, and the dielectric block was covered with silicone rubber to prepare a cell having an internal volume of 15 μl. The silicone rubber cover was provided with two pores with diameters of 1 mm, and a teflon tube (i.d.: 0.5 mm; o.d.: 1 mm) was allowed to path therethrough to prepare a flow channel system. The chip provided with such flow channel system was mounted on the surface plasmon resonance measurement device of the present invention. Hereafter, liquid exchange was carried out by pouring 500 μl of liquid for 5 seconds.
The flow channel was filled with 70 μl of a mixed solution of 200 mM EDC (N-ethyl-N′-(3-dimethylaminopropyl)carbodiimide hydrochloride) and 50 mM NHS (N-hydroxysuccinimide), and was then allowed to stand for 10 minutes. […] The amount of the immobilized proteins was determined based on changes in signal intensities before and after protein immobilization.
[…] Based on the signal intensity before liquid exchange, changes in the signal intensity were measured at intervals of 0.5 seconds. […] Changes in signal intensities were determined from 5 seconds before the initiation of the exchange to 2 minutes after the exchange.

[1] = biological target: T1, Bovine Carbonic Anhydrase (Bos taurus, UniProt P00921); assay: Evaluation of binding ability of hydrochlorothiazide on CA-immobilized chip by surface plasmon resonance (Example 2); conditions: 50 μM in 1×PBS pH 7.4
T1 construct: purchased SIGMA
T1 sequence (P00921 whole entry): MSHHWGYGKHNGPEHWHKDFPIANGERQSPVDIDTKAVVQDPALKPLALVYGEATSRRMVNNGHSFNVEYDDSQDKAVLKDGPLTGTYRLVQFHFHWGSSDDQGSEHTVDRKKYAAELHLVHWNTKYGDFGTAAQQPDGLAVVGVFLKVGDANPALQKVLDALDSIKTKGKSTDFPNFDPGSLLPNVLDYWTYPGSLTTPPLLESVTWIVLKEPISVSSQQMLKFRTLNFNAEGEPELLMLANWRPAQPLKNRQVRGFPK
Method: as §1
The flow channel was filled with 70 μl of a mixed solution of 200 mM EDC (N-ethyl-N′-(3-dimethylaminopropyl)carbodiimide hydrochloride) and 50 mM NHS (N-hydroxysuccinimide), and was then allowed to stand for 10 minutes. After the liquid exchange was carried out twice with 100 μl of Acetate 5.0 buffer (BIAcore), the liquid was exchanged with the acetate 5.0 solution containing Bovine Carbonic Anhydrase (hereinafter referred to as CA) (SIGMA) with the concentration shown in Table 2, and the resultant was allowed to stand for a certain period to immobilize CA. The inside of the chip was exchanged with 1 M ethanolamine solution and was then allowed to stand for 10 minutes. The interior of the chip was exchanged twice with 100 μl of Acetate 5.0 buffer to prepare CA-immobilized chip. The amount of the immobilized proteins was determined based on changes in signal intensities before and after CA immobilization. Also, the period for adding CA solution is changed, and the minimum period necessary to achieve the immobilized CA amount of 3000 RU or more was determined.
The flow channel system of the CA-immobilized chips, the amount of CA immobilized thereto was approximately 3,000 RU, was filled with 1×PBS buffer (pH 7.4). Based on the signal intensity before liquid exchange, changes in the signal intensity were measured at intervals of 0.5 seconds. The content of the flow channel system was exchanged with a hydrochlorothiazide solution (Sigma) (dissolved in 1×PBS (pH 7.4) to result in 50 μM therein). Changes in signal intensities were determined from 5 seconds before the initiation of the exchange to 2 minutes after the exchange.

Chain of Carbonic anhydrase (P00921 whole entry): as above

Hydrochlorothiazide Binding amount (Carbonic anhydrase; Level 1: dextran (branched) chip, carbonic anhydrase immobilized 1500 RU): 5 RU
Hydrochlorothiazide Binding amount (Carbonic anhydrase; Level 5: pullulan (linear) chip, carbonic anhydrase immobilized 2500 RU): 10 RU
Hydrochlorothiazide Binding amount ([1]; Level 2: dextran 15% by weight chip, CA 200 μg/ml): −15 RU
Hydrochlorothiazide Binding amount ([1]; Level 3: dextran 25% by weight chip, CA 20 μg/ml): 2 RU
Hydrochlorothiazide Binding amount ([1]; Level 4: dextran 25% by weight chip, CA 200 μg/ml): −30 RU
Hydrochlorothiazide Binding amount ([1]; Level 5: amylose 10% by weight chip, CA 20 μg/ml): 17 RU
Hydrochlorothiazide Binding amount ([1]; Level 6: amylose 10% by weight chip, CA 200 μg/ml): 11 RU
Hydrochlorothiazide Binding amount ([1]; Level 7: amylose 15% by weight chip, CA 20 μg/ml): 15 RU
Hydrochlorothiazide Binding amount ([1]; Level 8: amylose 15% by weight chip, CA 200 μg/ml): 10 RU
Structure (SMILES): NS(=O)(=O)c1cc2c(cc1Cl)NCNS2(=O)=O [Hydrochlorothiazide, hydrochlorothiazide]
